Test results published in patent US11103457B2, “Pharmaceutical compositions comprising safinamide” (Zambon S.P.A., priority 2017, dated 2021).

Assay: Sensory evaluation of the active ingredient safinamide (taste and irritation in the mouth)
Type: in vivo
Conditions: five minutes after rinsing with drinking water; 2 subjects
Procedure: In order to verify the unpleasant taste and irritation sensation of the active pharmaceutical ingredient, safinamide methanesulphonate, a test was performed in vivo by using an amount of safinamide methanesulfonate equal to 100 mg of safinamide base. Sensory evaluation was carried out by recruiting 2 subjects, who were asked to put said amount in the mouth by avoiding swallowing the mass. At the end of the test, participants were asked to rinse the mouth with plenty of drinking water; five minutes later their tongue and palate resulted to be still sore.

With `C[C@H](NCc1ccc(OCc2cccc(F)c2)cc1)C(N)=O` [safinamide methanesulfonate, (2S)-2-[[4-[(3-fluorophenyl)methoxy]phenyl]methylamino]propanamide] the “tongue and palate after rinsing the mouth” value was “still sore”.
